Test results published in patent US4187373A, “Novel dihydrobenzanthracene derivatives” (American Cyanamid Company, priority 1978, dated 1980).
Where “and” joins values, the source holds several entries; their conditions need not be identical. Equal entries are not always repeated. Structures can show the parent of a compound that is named as a salt.

Tests used:
[1] = tested on: lymphocytic leukemia P388; assay: Lymphocytic Leukemia P388 Test; format: in vivo, mice
Experimental: The animals used are mice all of one sex, weighing a minimum of 17 g. and all within a 3 gram weight range. There are 5 or 6 animals per test group. The tumor transplant is by intraperitoneal injection of 0.1 ml. or 0.5 ml. of dilute ascitic fluid containing 10^6 cells of lymphocytic leukemia P388. The test compounds are administered intraperitoneally on days one, 5 and 9 (relative to tumor inoculation) at various doses. The animals are weighed and survivors are recorded on a regular basis for 30 days. The median survival time and the ratio of survival time for treated (T)/control (C) animals are calculated. […] The results of this test with representative compounds of the present invention appear in Table II below. The criterion for efficacy is T/C×100≥125%.

[2] = tested on: melanotic melanoma B16 tumor; assay: Melanotic Melanoma B16; format: in vivo, C57BC/6 mice
Experimental: The animals used are C57BC/6 mice, all of the same sex, weighing a minimum of 17 g. and all within a 3 g. weight range. There are normally 10 animals per test group. A one-gram portion of melanotic melanoma B16 tumor is homogenized in 10 ml. of cold balanced salt solution and a 0.5 ml. aliquot of the homogenate is implanted intraperitoneally into each of the test mice. The test compounds are administered intraperitoneally on days one through 9 (relative to tumor inoculation) at various doses. The animals are weighed and survivors are recorded on a regular basis for 60 days. The median survival time and the ratio of survival time for treated (T)/control (C) animals are calculated. The positive control compound is 5-fluorouracil given as a 20 mg./kg. injection. The results of this test with a representative compound of the present invention appear in Table III below. The criterion for efficacy is T/C×100≥125%.

[3] = tested on: Staphylococcus aureus, Q 74-11; assay: antibacterial activity in vitro, agar-dilution streak-plate technique; format: cell-based; conditions: Q7411, 37° C. for 18 hours, read-out: minimal inhibitory concentration (MIC)
Experimental: (§1) The antibacterial spectrum in terms of the concentration required to inhibit the growth of various typical bacteria was determined in a standard manner by the agar-dilution streak-plate technique. A Steers multiple inocula replicator was used with incubation at 37° C. for 18 hours in Mueller-Ninton agar. The results for 7,12-bis-(2-imidazolin-2-ylhydrazone)benz[a]anthracene-7,12-dicarboxaldehyde dihydrochloride, a typical compound of this invention, are set forth in Table I as the minimal inhibitory concentration (MIC) in micrograms per milliliter.

Enterococcus, SM 77-15 = assay: as above; format: cell-based; conditions: SM7715, 37° C. for 18 hours, read-out: minimal inhibitory concentration (MIC)
Experimental: as §1

[4] = tested on: Staphylococcus aureus, St. Paul (NYC 78-1); assay: as above; format: cell-based; conditions: 37° C. for 18 hours, read-out: minimal inhibitory concentration (MIC)
Experimental: as §1

[5] = tested on: Staphylococcus aureus, OSU 75-2; assay: as above; format: cell-based; conditions: OSU752, 37° C. for 18 hours, read-out: minimal inhibitory concentration (MIC)
Experimental: as §1

[6] = P388, positive control, dose 40 mg./kg.
[7] = P388, positive control, dose 60 mg./kg.
[8] = B16, positive control, dose 20 mg./kg.
[9] = P388, dose 0.78 mg./kg. intraperitoneally on days one, 5 and 9
[10] = P388, dose 1.56 mg./kg. intraperitoneally on days one, 5 and 9, dihydrochloride
[11] = P388, dose 3.12 mg./kg. intraperitoneally on days one, 5 and 9, dihydrochloride
[12] = P388, dose 6.25 mg./kg. intraperitoneally on days one, 5 and 9, dihydrochloride
[13] = P388, dose 12.5 mg./kg. intraperitoneally on days one, 5 and 9, dihydrochloride
[14] = P388, dose 25 mg./kg. intraperitoneally on days one, 5 and 9, dihydrochloride
[15] = B16, dose 0.2 mg./kg. intraperitoneally on days one through 9
[16] = B16, dose 0.5 mg./kg. intraperitoneally on days one through 9
[17] = B16, dose 1.5 mg./kg. intraperitoneally on days one through 9
[18] = B16, dose 3 mg./kg. intraperitoneally on days one through 9
[19] = P388, dose 1.56 mg./kg. intraperitoneally on days one, 5 and 9
[20] = P388, dose 3.12 mg./kg. intraperitoneally on days one, 5 and 9
[21] = P388, dose 6.25 mg./kg. intraperitoneally on days one, 5 and 9
[22] = P388, dose 12.5 mg./kg. intraperitoneally on days one, 5 and 9
[23] = P388, dose 25 mg./kg. intraperitoneally on days one, 5 and 9

O=c1[nH]cc(F)c(=O)[nH]1 [5-Fluorouracil, 5-fluorouracil, reference compound]
Median Survival [1, 6]: 18 days and 18.5 days
T/C × 100 (Percent) [1, 6]: 164% and 154%
Median Survival [1, 7]: 12.5 days and 20.0 days
T/C × 100 (Percent) [1, 7]: 109% and 200%
Median Survival [2, 8]: 25.5 days
T/C × 100 (Percent) [2, 8]: 155%

C(=NNC1=NCCN1)C1c2ccccc2C(C=NNC2=NCCN2)c2c1ccc1ccccc21 (stereo not drawn) [Bis(2-imidazolin-2-ylhydrazone) of 7,12-dihydrobenz[a]anthracene-7,12-dicarboxaldehyde dihydrochloride]
Median Survival [1, 9]: 13.0 days
T/C × 100 (Percent) [1, 9]: 130%
Median Survival [1, 10]: 13.5 days
T/C × 100 (Percent) [1, 10]: 135%
Median Survival [1, 11]: 16.5 days
T/C × 100 (Percent) [1, 11]: 165%
Median Survival [1, 12]: 16.5 days
T/C × 100 (Percent) [1, 12]: 165%
Median Survival [1, 13]: 17.5 days
T/C × 100 (Percent) [1, 13]: 175%
Median Survival [1, 14]: 17 days
T/C × 100 (Percent) [1, 14]: 170%

C(=NNC1=NCCN1)c1c2ccccc2c(C=NNC2=NCCN2)c2c1ccc1ccccc12 [Bis(2-imidazolin-2-ylhydrazone) of benz[a]anthracene-7,12-dicarboxaldehyde]
Median Survival [2, 15]: 22.0 days
T/C × 100 (Percent) [2, 15]: 133%
Median Survival [2, 16]: 25.0 days
T/C × 100 (Percent) [2, 16]: 152%
Median Survival [2, 17]: 30.5 days
T/C × 100 (Percent) [2, 17]: 185%
Median Survival [2, 18]: 31.0 days
T/C × 100 (Percent) [2, 18]: 188%

C(=NNC1=NCCN1)c1c2ccccc2c(C=NNC2=NCCN2)c2cc3ccccc3cc12 [Bis(2-imidazolin-2-ylhydrazone)-5,12-benz[b]anthracene dicarboxaldehyde dihydrochloride]
Median Survival [1, 9]: 15.0 days
T/C × 100 (Percent) [1, 9]: 130%
Median Survival [1, 19]: 15.5 days
T/C × 100 (Percent) [1, 19]: 135%
Median Survival [1, 20]: 18.0 days
T/C × 100 (Percent) [1, 20]: 157%
Median Survival [1, 21]: 18.5 days
T/C × 100 (Percent) [1, 21]: 161%
Median Survival [1, 22]: 22.0 days
T/C × 100 (Percent) [1, 22]: 191%

C(=NNC1=NCCN1)c1c2ccccc2c(C=NNC2=NCCN2)c2c1ccc1ccccc12 [Bis(2-imidazolin-2-ylhydrazone)-7,12-benz[a]anthracene dicarboxaldehyde dihydrochloride]
MIC [3]: 8 µg/mL
MIC (Enterococcus, SM 77-15): 8 µg/mL
MIC [4]: 8 µg/mL
MIC [5]: 16 µg/mL
Median Survival [1, 9]: 15.0 days
T/C × 100 (Percent) [1, 9]: 150%
Median Survival [1, 19]: 16.0 days
T/C × 100 (Percent) [1, 19]: 160%
Median Survival [1, 20]: 17.5 days
T/C × 100 (Percent) [1, 20]: 175%
Median Survival [1, 21]: 19.0 days
T/C × 100 (Percent) [1, 21]: 190%
Median Survival [1, 22]: 19.0 days
T/C × 100 (Percent) [1, 22]: 190%

C(=NNC1=NCCN1)C1c2ccccc2C(C=NNC2=NCCN2)c2c1ccc1ccccc21 (stereo not drawn) [Bis(2-imidazolin-2-ylhydrazone)-7,12-dihydro-benz[a]anthracene dicarboxaldehyde]
Median Survival [1, 19]: 14.5 days
T/C × 100 (Percent) [1, 19]: 132%
Median Survival [1, 20]: 14 days
T/C × 100 (Percent) [1, 20]: 127%
Median Survival [1, 21]: 16 days
T/C × 100 (Percent) [1, 21]: 145%
Median Survival [1, 22]: 18 days
T/C × 100 (Percent) [1, 22]: 164%
Median Survival [1, 23]: 20 days
T/C × 100 (Percent) [1, 23]: 182%
